Test results from patent publication US20130065756A1, “SPIROHETEROCYCLIC DIONE DERIVATIVES USED AS PESTICIDES” (SYNGENTA CROP PROTECTION LLC, priority 2009, published 2013).
Like-named read-outs stand apart in the source and are kept apart here.

Tests used:
[1] = tested on: Thrips tabaci (onion thrips); test: Example B3: Thrips tabaci, mixed population, feeding/residual contact activity, preventive; details: foliar, 144 h, read-out: activity (mortality)
[2] = tested on: Nilaparvata lugens (brown rice planthopper); test: Example B6: Nilaparvata lugens, larvicide, feeding/contact; details: in Oryza sativa, read-out: activity (mortality, growth regulation, effects on F1 generation)
pepper plants = details: in vivo, 6 days, 200 ppm
Protocol: (§1) (Mixed Population, Feeding/Residual Contact Activity, Plant Damage Evaluation)
(§2) Pepper [P] or cabbage […] plants infested with a mixed population of Myzus persicae are treated with diluted test solutions of the compounds in a spray chamber. 6 days after treatment, samples are checked for mortality and for plant damage (phytotoxicity), visual assessment being made using a 0-100% rating scale (100%=total damage to plant; 0%=no damage to plant).

[3] = tested on: Aphis Craccivora (cowpea aphid); test: Example B7: translaminar activity against Aphis craccivora; format: in vivo; details: 120 h, upper side of French bean leaves painted, 5 days
Protocol: Translaminar Activity Against Aphis Craccivora (Cowpea Aphid)
French bean leaves (Phaseolus vulgaris) are infested with about 20 mixed age individuals on the lower leaf side using clip cages. 1 day after the infestation, the upper side of the leaves is treated with the test solution by painting. 5 days later, samples are checked for mortality.

[4] = tested on: Myzus persicae (green peach aphid); test: Example B9: Myzus persicae on pepper or cabbage plants, feeding/residual contact activity; format: in vivo; details: 144 h, 6 days, read-out: activity against Myzus persicae (mortality)
[5] = tested on: Myzus persicae (green peach aphid); test: Example B8: drench activity against Myzus persicae; details: soil, 168 h, read-out: activity (mortality), drench
[6] = tested on: Tetranychus urticae (two-spotted spider mite); test: Example B4: Tetranychus urticae, mixed population, feeding/residual contact activity, preventive; details: foliar, 192 h, read-out: activity (egg, larval and adult mortality)
[7] = tested on: Myzus persicae (green peach aphid); test: Example B2: Myzus persicae, mixed population, systemic/feeding activity, curative; details: 144 h, read-out: activity (mortality)
[8] = tested on: Myzus persicae (green peach aphid); test: Example B1: Myzus persicae, mixed population, feeding/residual contact activity, preventive; format: in vivo; details: foliar, 144 h, sprayed sunflower leaf discs, 6 days
cabbage plants = details: in vivo, 6 days, 200 ppm
Protocol: as §1, §2

| SMILES | mortality at 400 ppm [1] | mortality at 400 ppm [2] | damage to pepper plants (phytotoxicity) (pepper plants) | mortality at 400 ppm [3] | mortality at 200 ppm ([4]; pepper [P] plants sprayed) | mortality at 25 ppm [5] | mortality at 400 ppm [6] | mortality at 400 ppm [7] | mortality at 400 ppm [8] | damage to cabbage plants (phytotoxicity) (cabbage plants) | mortality at 200 ppm ([4]; cabbage [C] plants sprayed) |
| --- | --- | --- | --- | --- | --- | --- | --- | --- | --- | --- | --- |
| CON1CCC2(CC1)C(=O)C(c1c(C)cc(C)cc1C)C(=O)N2N(C)C (centres unmarked) [A1, 1-Dimethylamino-8-methoxy-3-(2,4,6-trimethyl-phenyl)-1,8-diaza-spiro[4.5]decane-2,4-dione] | > 80% | > 80% | ≤ 10% | > 80% | ≥ 80% | > 80% | > 80% | – | – | – | – |
| CCOC(=O)OC1=C(c2c(C)cc(C)cc2C)C(=O)N(N(C)C)C12CCN(OC)CC2 [A2, Carbonic acid 1-dimethylamino-8-methoxy-2-oxo-3-(2,4,6-trimethyl-phenyl)-1,8-diaza-spiro[4.5]dec-3-en-4-yl ester ethyl ester] | – | > 80% | ≤ 10% | > 80% | ≥ 80% | > 80% | > 80% | > 80% | – | – | – |
| CON1CCC2(CC1)C(O)=C(c1c(C)cc(Cl)cc1C)C(=O)N2N(C)C [A3] | – | – | – | – | – | – | > 80% | – | – | – | – |
| CCOC(=O)OC1=C(c2c(C)cc(Cl)cc2C)C(=O)N(N(C)C)C12CCN(OC)CC2 [A4] | – | – | ≤ 10% | – | ≥ 80% | – | > 80% | > 80% | > 80% | – | – |
| CON1CCC2(CC1)C(O)=C(c1cc(C)ccc1C)C(=O)N2N(C)C [A5] | – | – | ≤ 10% | – | ≥ 80% | – | – | – | – | – | – |
| CON1CCC2(CC1)C(O)=C(c1c(C)cc(C)cc1C)C(=O)N2N1CCOCC1 [B1] | – | – | – | – | – | – | > 80% | > 80% | > 80% | ≤ 10% | ≥ 80% |
| CCOC(=O)OC1=C(c2c(C)cc(C)cc2C)C(=O)N(N2CCOCC2)C12CCN(OC)CC2 [B2] | – | – | – | – | – | – | – | > 80% | > 80% | ≤ 10% | ≥ 80% |
| CON1CCC2(CC1)C(O)=C(c1c(C)cc(Cl)cc1C)C(=O)N2N1CCOCC1 [B3] | – | – | – | – | – | – | > 80% | > 80% | > 80% | ≤ 10% | ≥ 80% |
| CCOC(=O)OC1=C(c2c(C)cc(Cl)cc2C)C(=O)N(N2CCOCC2)C12CCN(OC)CC2 [B4] | – | – | – | – | – | – | > 80% | > 80% | > 80% | ≤ 10% | ≥ 80% |
| CON1CCC2(CC1)C(O)=C(c1cc(C)ccc1C)C(=O)N2N1CCOCC1 [B5] | – | – | – | – | – | – | – | > 80% | – | ≤ 10% | ≥ 80% |
| CCOC(=O)OC1=C(c2cc(C)ccc2C)C(=O)N(N2CCOCC2)C12CCN(OC)CC2 [B6] | – | – | – | – | – | – | – | > 80% | – | ≤ 10% | ≥ 80% |
